Measured values: patent US6469013B2, “Therapeutic compounds” (Parker Hughes Institute, priority 1998, dated 2002)
Like-named read-outs stand apart in the source and are kept apart here.

Key:
NALM-6 (pre-B ALL) = assay: Methylcellulose clonogenic assay; type: cell-based, human
Experimental: The antileukemic activity of compound 6 against clonogenic tumor cells was examined using a methylcellulose colony assay system (Uckun, F. M., et al., J. Exp. Med. 163: 347-368, 1986; Messinger, Y., et al., Clin Cancer Res. 4: 165-70, 1998). In brief, cells (10^5/ml in RPMI-10% FBS) were treated overnight at 37° C. with compound 6 at varying concentrations. After treatment, cells were washed twice, plated at 10^4 or 10^5 cells/ml in RPMI-10% FMS-0.9% methylcellulose in Petri dishes, and cultured for 7 days at 37° C. in a humidified 5% CO2 incubator. Subsequently, leukemic cell (or tumor cell) colonies were enumerated using an inverted phase-contrast microscope. The percent inhibition of colony formation was calculated using the following formula:
% Inhibition=1−mean number of colonies in test culture×100 mean number of colonies in control culture

skh-1 mice = assay: Acute UVB skin inflammation: skinfold thickness, morphology, histology; type: in vivo, mouse; conditions: 48 h post UVB; UVB vehicle 3-5, normal 2-3
From the text: A bank of 8-FSX24T12/HO/UVB lamps (National Biological Corporation, Twinsburg, Ohio) that emits light predominantly in the UVB range, 280-320 nm was used to irradiate mice and cell cultures. The irradiance of UVB lamps was always measured before irradiation using a UVB meter (model—500C obtained from National Biological Corporation, Twinsburg, Ohio). The dose of UVB light used to irradiate cultures was 25 mj/cm^2. Anesthetized mice received UVB radiations to a 2.0 cm^2 area on their dorsal surface. This area was painted either with the test compound (1.5 mg/cm^2) in drug receiving mice, or with vehicle in control mice fifteen minutes before irradiation. The distance between UVB lamps and surface receiving irradiation was 20 cm. The final radiation dose received by skh-1 hairless mice was 250 mj/cm^2 which is approximately seven times higher than the minimal erythema dose (MED) (17) in these mice. […]
Morphological appearance of the UVB irradiated skin was monitored visually and compared with the control mice skin. Skinfold thickness of the dorsal surface of the mice was recorded before, and everyday after UVB exposure for five days with a digital thickness gauge (Mitutoyo, So. Plainfield, N.J.) which measures thickness in 0-10 mm range with an accuracy of 0.015 mm. […]

C57BL/6 recipients = assay: Syngeneic islet graft function under long-term treatment; type: in vivo, mouse; conditions: 50 mg/kg
Experimental: Mice were fasted for 10 hours, and the glucose solution (1.5 g/kg body weight) was injected i.p. Before and after injection of glucose, blood samples were taken and blood glucose levels were measured (as described above) at 0, 30, 60 and 120 min time points.
The vehicle control—(n=3) and WHI-P131-treated C57BL/6 recipients (n=5) of islet allograft were sacrificed on day 14 post transplantation; Jak3 recipients (n=6) were sacrificed on day 100 post transplantation; the C57BL/6 recipients of syngeneic islets—vehicle control—(n=4) and WHI-P131-treated (n=5) were sacrificed on day 180 post transplantation. Kidneys bearing grafts were removed, fixed in 10% formalin and embedded in paraffin. Serial sections of graft area were cut and stained with hematoxylin and eosin. For insulin staining, sections were stained by immunoperoxidase method using 1:100 dilution of polyclonal guinea pig anti-insulin antibody (Gpx Insulin, Dako, Carpinteria, Calif.) and 1:100 dilution of secondary antibody conjugated to horse radish peroxidase (Guinea Pig Immunoglobulins HRP, Dako, Carpinteria, Calif.). Sections were briefly counterstained with hematoxylin and mounted for light microscopic examination.

COc1cc2ncnc(Nc3ccc(O)cc3)c2cc1OC [WHI-P131, 4-(4′-hydroxyl-phenyl)-amino-6,7-dimethoxyquinazoline]
inhibition at 100 µM (NALM-6 (pre-B ALL); Homo sapiens, NALM-6, 100 μM, 'these leukemia cell lines', read-out: inhibition of in vitro colony formation): > 99% | inhibition at 0.1 µM (NALM-6 (pre-B ALL); Homo sapiens, NALM-6, 0.1 μM): 0% | inhibition at 1 µM (NALM-6 (pre-B ALL); Homo sapiens, NALM-6, 1 μM): 0% | inhibition at 10 µM (NALM-6 (pre-B ALL); Homo sapiens, NALM-6, 10 μM): 33.2% | inhibition at 100 µM (NALM-6 (pre-B ALL); Homo sapiens, NALM-6, 100 μM, read-out: % Inhibition): > 99.9% | EC50 (NALM-6 (pre-B ALL); Homo sapiens, NALM-6 cells, read-out: EC50, inhibition of clonogenic growth): 24.4 µM | Mean No. of Colonies/10^5 Cells (NALM-6 (pre-B ALL); NALM-6, 0.1 μM): 2970 (2756, 3184) | Mean No. of Colonies/10^5 Cells (NALM-6 (pre-B ALL); NALM-6, 1 μM): 3180 (3080, 3136) | Mean No. of Colonies/10^5 Cells (NALM-6 (pre-B ALL); NALM-6, 10 μM): 1932 (1864, 2000) | Mean No. of Colonies/10^5 Cells (NALM-6 (pre-B ALL); NALM-6, 100 μM): 2 (2, 2) | cell layers of epidermis (skh-1 mice): 1-2 cell layers | IPGTT, islet function vs controls (C57BL/6 recipients; day 70): no significant difference in islet function | nonfasting blood glucose (C57BL/6 recipients; day 70 of treatment): 124.6 ± 10.8 mg/dL | IPGTT, islet function vs controls (C57BL/6 recipients; day 180): not different | insulin expression in syngeneic grafts vs vehicle (C57BL/6 recipients; day 180, immunohistochemistry): comparable | non-fasting blood glucose level (C57BL/6 recipients; day 180 post transplantation): 115.2 ± 9.2 mg/dL | non-fasting blood glucose level vs vehicle control (C57BL/6 recipients; entire period of 180 days): did not differ
